Key:
L3MBTL3 = target: T1, L3MBTL3 (Homo sapiens, UniProt Q96JM7); experiment: AlphaScreen competition assay; conditions: in words
T1 sequence (Q96JM7 1-780): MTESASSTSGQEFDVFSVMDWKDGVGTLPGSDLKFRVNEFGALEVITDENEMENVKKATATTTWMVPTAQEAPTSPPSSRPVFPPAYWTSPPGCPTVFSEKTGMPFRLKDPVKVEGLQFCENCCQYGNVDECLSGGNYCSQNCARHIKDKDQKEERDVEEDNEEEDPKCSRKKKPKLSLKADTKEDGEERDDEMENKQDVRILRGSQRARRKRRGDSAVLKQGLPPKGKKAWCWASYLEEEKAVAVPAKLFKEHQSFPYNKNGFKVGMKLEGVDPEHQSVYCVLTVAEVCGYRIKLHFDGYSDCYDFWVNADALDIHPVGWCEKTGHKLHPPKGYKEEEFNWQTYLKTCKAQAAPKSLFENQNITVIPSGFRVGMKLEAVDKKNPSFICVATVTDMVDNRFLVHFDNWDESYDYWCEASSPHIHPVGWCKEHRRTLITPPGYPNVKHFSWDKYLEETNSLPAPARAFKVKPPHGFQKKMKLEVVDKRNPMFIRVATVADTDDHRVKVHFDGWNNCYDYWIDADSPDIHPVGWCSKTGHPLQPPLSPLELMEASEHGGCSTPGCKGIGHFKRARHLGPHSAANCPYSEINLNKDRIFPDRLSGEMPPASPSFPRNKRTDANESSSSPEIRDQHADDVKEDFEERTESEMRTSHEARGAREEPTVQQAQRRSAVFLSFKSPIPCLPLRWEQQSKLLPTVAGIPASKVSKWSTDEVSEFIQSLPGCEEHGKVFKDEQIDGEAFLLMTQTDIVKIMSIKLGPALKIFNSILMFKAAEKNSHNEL

[1] = CellTiter-Glo luminescent cell viability assay; assay type: cell-based
endogenous L3MBTL3 = target: T2, endogenous L3MBTL3 (Homo sapiens, UniProt Q96JM7); experiment: Biotin-1 pull-down; assay type: binding; conditions: G-401 cell lysates, Western analysis
T2 sequence (Q96JM7 1-780): T1 sequence (Q96JM7 1-780)

[2] = target: T3, GFP-FLMBT (GFP fusion of full-length L3MBTL3) (Homo sapiens, UniProt Q96JM7); experiment: Displacement of mero76-1 from GFP-FLMBT in HEK293 cells; assay type: cell-based
T3 sequence (Q96JM7 1-780): T1 sequence (Q96JM7 1-780)

[3] = tested on: GFP fusion protein containing the three MBT domains of L3MBTL3 (GFP-3MBT); conditions: read-out: EC50, effect on subnuclear localization of GFP-3MBT; cells; cited from earlier work
L3MBTL1 = target: T4, L3MBTL1 (Homo sapiens, UniProt Q9Y468); experiment: Isothermal titration calorimetry; assay type: binding; conditions: in words
T4 sequence (Q9Y468 1-772 isoform Q9Y468-1): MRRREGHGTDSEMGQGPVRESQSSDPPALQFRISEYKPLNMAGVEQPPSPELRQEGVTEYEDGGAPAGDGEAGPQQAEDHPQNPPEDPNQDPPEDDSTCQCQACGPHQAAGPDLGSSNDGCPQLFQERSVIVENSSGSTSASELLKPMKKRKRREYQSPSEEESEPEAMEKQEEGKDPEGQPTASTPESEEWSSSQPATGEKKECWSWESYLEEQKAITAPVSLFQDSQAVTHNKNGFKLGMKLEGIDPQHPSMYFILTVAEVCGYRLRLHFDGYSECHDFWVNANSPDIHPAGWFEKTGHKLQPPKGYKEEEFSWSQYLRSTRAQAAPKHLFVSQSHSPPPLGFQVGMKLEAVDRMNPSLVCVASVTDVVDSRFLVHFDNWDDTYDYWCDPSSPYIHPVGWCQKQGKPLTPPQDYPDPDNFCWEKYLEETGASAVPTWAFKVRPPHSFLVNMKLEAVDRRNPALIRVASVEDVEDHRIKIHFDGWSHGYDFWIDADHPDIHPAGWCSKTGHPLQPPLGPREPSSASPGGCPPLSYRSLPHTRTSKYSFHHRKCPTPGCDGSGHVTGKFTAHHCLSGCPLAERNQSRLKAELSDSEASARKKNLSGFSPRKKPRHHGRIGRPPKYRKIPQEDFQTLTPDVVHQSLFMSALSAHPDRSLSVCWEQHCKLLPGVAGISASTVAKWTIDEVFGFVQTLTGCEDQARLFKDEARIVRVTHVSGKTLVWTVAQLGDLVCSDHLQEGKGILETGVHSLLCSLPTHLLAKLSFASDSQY

What does the source list for `O=C(c1cccc(Br)c1)N1CCC(N2CCCC2)CC1` [Compound 57]?
change in affinity for L3MBTL1 L361F relative to wildtype L3MBTL1 by ITC (L3MBTL1 L361F): ≤ 2 fold; binding to L3MBTL3 versus L3MBTL1 (L3MBTL3): equally well

With `CCN1Cc2ccc(NC(=O)c3ccc(C(=O)N4CCC(C5CCCN5)CC4)cc3)cc2C1` (centres unmarked) [Compound 2] as the molecule, how does the “cytotoxicity, no observable level up to” value [1] read?
The value was > 100 µM.

With `O=C(c1ccc(C(=O)N2CCC(N3CCCC3)CC2)cc1)N1CCC(N2CCCC2)CC1` [Compound 5] as the molecule, how does the “cytotoxicity, no observable level up to” value [1] read?
Its value is > 100 µM.

Which “competition with biotin-1 for binding to endogenous L3MBTL3” value (endogenous L3MBTL3) does the source give for `O=C(c1ccc(C(=O)N2CCC(N3CCCC3)CC2)c(Nc2ccccc2)c1)N1CCC(N2CCCC2)CC1` [Compound 1] here?
The value was “competed off with soluble 1”.

What about the “displacement of mero76-1 from GFP-L3MBTL3” value ([2]; 1 equivalent relative to mero76-1) of the same molecule?
Its value is “displace mero76-1 from GFP-L3MBTL3”.

What about the “displacement of mero76-1 from GFP-FLMBT” value ([2]; 1 or 5 equivalents relative to mero76-1 (both concentrations)) of the same molecule?
Its value is “largely displaces mero76-1 from GFP-FLMBT”.

What about the EC50 [3] of the same molecule?
The EC50 was ~500 nM.

What about the “cytotoxicity, no observable level up to” value [1] of the same molecule?
The value was > 100 µM.

With `O=C(c1ccc(C(=O)N2CCC(N3CCCC3)CC2)c(NCc2ccccc2)c1)N1CCC(N2CCCC2)CC1` [Compound 49] as the molecule, how does the “affinity for L3MBTL1 by follow-up ITC” value (L3MBTL1) read?
The value was “micromolar affinity”.

For `O=C(c1ccc(C(=O)N2CCC(N3CCCCC3)CC2)cc1)N1CCC(N2CCCCC2)CC1` [Compound 37], which “competition with biotin-1 for binding to endogenous L3MBTL3” value (endogenous L3MBTL3) is on record?
Its value is “failed to compete for binding to endogenous L3MBTL3”.

From PMC3846386 (Journal of medicinal chemistry, 2013)
